Where a name gives a salt, the structure may show the parent alone. Read-outs that look alike come from different tables or passages of the source.
Legend:
[1] = target: T1, Dopamin (D₂)-Rezeptor (Rattus norvegicus, UniProt P61169); assay: Dopamine (D2) receptor binding affinity, 3H-spiroperidol displacement in rat striatal homogenate; parameters: species or system Ratten
T1 construct: Die Striata werden herauspräpariert und in 25 ml eiskaltem Puffer; from tissue; host or cells: rat striatum membrane homogenate
T1 sequence (P61169 whole entry): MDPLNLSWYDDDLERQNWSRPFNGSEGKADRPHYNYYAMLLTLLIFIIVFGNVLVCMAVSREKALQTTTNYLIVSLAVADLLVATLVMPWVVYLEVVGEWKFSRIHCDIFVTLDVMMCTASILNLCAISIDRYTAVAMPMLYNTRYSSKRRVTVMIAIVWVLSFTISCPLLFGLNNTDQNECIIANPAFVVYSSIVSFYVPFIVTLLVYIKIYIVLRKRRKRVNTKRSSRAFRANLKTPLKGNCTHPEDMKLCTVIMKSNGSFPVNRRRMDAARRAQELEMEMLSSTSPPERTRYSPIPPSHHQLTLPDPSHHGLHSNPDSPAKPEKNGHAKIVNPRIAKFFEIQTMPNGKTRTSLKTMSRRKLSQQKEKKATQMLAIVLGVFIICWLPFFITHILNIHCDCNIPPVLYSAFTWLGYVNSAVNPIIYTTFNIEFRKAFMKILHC
Method: 1.) Bestimmung der Dopamin (D₂)-Rezeptorbindungsaffinitäten nach der modifizierten Methode von D.J. de Vries und P.M. Beart (Europ. J. Pharmacology 109, 417-419 (1985)):
Ratten werden durch Schlag betäubt, dekapitiert und das Ge hirn entnommen. Die Striata werden herauspräpariert und in 25 ml eiskaltem Puffer (50 mM TRIS-HCl, 1 mM EDTA, 5 mM MgCl₂, 1mM Ascorbinsäure, pH=7,20) homogenisiert. Das Homogenat wird 15 Minuten bei 0°C und 50000 × g zentrifugiert. Der Überstand wird verworfen. Das Pellet wird durch Resuspension und erneute Zentrifugation zweimal gewaschen und anschließend bei 37°C eine halbe Stunde vorinkubiert. Das Inkubat wird wie zuvor beschrieben zentrifugiert und der Überstand verworfen. Das Pellet wird in 60 ml Puffer resuspen diert, homogenisiert und dann mit Puffer 1:500 bezogen auf das Striatagewicht verdünnt.
Für den Inkubationsansatz werden 10 µl ³H-Spiroperidol-Lö-sung ([…]; Endkonzentration: 2,5 × 10⁻¹⁰ M), 970 µl Puffer sowie 20 µl Testsubstanzlösung (Endkonzentration: 10⁻¹¹-10⁻⁴ M) vorgelegt. Die unspezifische Bindung wird in Gegenwart von 1 µM Haloperidol bestimmt. Durch Zugabe von 1 ml Homogenatlösung zu dieser Vorlage wird der Assay gestartet. Die Inkubationszeit beträgt 60 Minuten bei Raumtemperatur. Nach Ablauf dieser Zeit wird das Inkubat über ein GF/B-Filter abgesaugt und mit 15 ml eiskaltem Puffer gewaschen. Das feuchte Filter wird mit Instagel® versetzt und über Nacht extrahiert. Anschließend wird die verbliebene Radioaktivität in einem Packard CA 2000 Szintillationscounter bei einer Zählausbeute von 50-55 % gezählt.
Mit Hilfe eines 2-Bindungsstellen-Iterationsprogrammes werden die IC₅₀-Werte ermittelt und daraus die Ki-Werte berechnet.

[2] = test system: mit Reserpin behandelten Maus; assay: Anti-Parkinson effect: induction of motility in mice treated with reserpine 24 h earlier; type: in vivo; conditions: 2 mg/kg s.c., measured 20 min later, group of 6 mice, x ± sx; saline controls ca. 5
Method: 3. Bestimmung der Anti-Parkinson-Wirkung nach der Methode von Hinzen D. et al., European Journal of Pharmacology 131, 75-88 (1986):
a) Motilitätsauslösung an der 24 Stunden zuvor mit Reserpin behandelten Maus:
Mäuse werden 24 Stunden vor dem Experiment mit 5 mg/kg Reserpin i.p. behandelt; die Tiere werden bei 25-30°C gehalten und 3 × mit 2 ml einer 5%igen Glucose-lösung in Tyrode s.c. behandelt. Gruppen zu je 6 Tieren erhalten die Testsubstanz mit 2 mg/kg s.c. injiziert. 20 Minuten später werden die Tiere zur Aktivitätsmessung in Beobachtungskäfige gesetzt, die mit einer Infrarotlichtschranke ausgerüstet sind. Meß-wert ist die Häufigkeit des Passierens des Infrarotstrahles durch eine Gruppe von 6 Mäusen in 5 Minuten ("Laufimpulse/5 Minuten").
Pro Substanz werden 6 Gruppen geprüft. Kontrolltiere erhalten isotone Kochsalzlösung s.c..
Als Ergebnis werden die mit der Testsubstanz erzielten Laufimpulse/5 Minuten dargestellt (x ± sx) Kontrolltiere (Kochsalzlösung) zeigen minimale Aktivität (ca. 5 Laufimpulse/5 Minuten).

[3] = test system: Dopamin-Autorezeptoren; assay: Inhibition of dopamine turnover (AMPT-induced fall of whole-brain dopamine) in mice; type: in vivo, Mäusen; conditions: 5 mg/kg s.c., AMPT 250 mg/kg i.p. at 15 min, whole brain dopamine at 4 h 15 min
Method: 2. Bestimmung der Dopaminturnoverhemmung:
Die Dopaminturnoverhemmung wurde an Mäusen gemessen. Bei Tieren, die mit α-Methyl-p-tyrosin (AMPT) (250 mg/kg i.p.) zum Zeitpunkt 15 Minuten des Experimentes behandelt werden, fällt die Dopaminkonzentration im Gesamthirn mit fortschreitender Versuchsdauer ab. Durch Substanzen, die an Dopamin-Autorezeptoren wirken, kann der Dopaminabfall (im Vergleich zu mit Kochsalzlösung behandelten Kontrolltieren) verhindert werden. Testsubstanzen werden zum Zeitpunkt 0 des Experiments subkutan appliziert (5 mg/kg s.c.). Zum Zeitpunkt 4 Stunden und 15 Minuten des Experiments werden die Tiere getötet und die Gehirne der Dopaminbestimmung mittels Hochdruckflüssigkeitschromatographie mit elektrochemischer Detektion zugeführt. Bestimmt wird die durch die Testsubstanz bewirkte prozentuale Hemmung des durch AMPT induzierten Dopaminabfalls: […]

[4] = test system: MPTP-Affen; assay: Anti-Parkinson effect: abolition of Parkinson symptoms in the MPTP monkey; type: in vivo, Rhesusaffen; conditions: for Dauer (Wirkungsdauer): at the minimal dose; for minimal effective dose: Macaca mulatta, im, read-out: Dosis (Mindestdosen, die zur Aufhebung der Parkinsonsymptomatik führen)
From the text: b) Aufhebung der Parkinsonsymptome am MPTP-Affen nach der modifizierten Methode von Burns, R.S. und Chuang, C.: Proc. Natl. Acad. Sci. 80, 4546-4550 (1983):
Das durch das Neurotoxin 1-Methyl-4-phenyl-1,2,3,6-tetrahydro-pyridin (MPTP) beim Menschen und beim Affen ausgelöste, irreversible neurologische Krankheitsbild ähnelt in seiner klinischen, pathologischen, biochemischen und pharmakologischen Ausprägung weitgehend der idiopathischen Parkinson'schen Erkrankung (Markey et al., Nature 311, 464 (1984)). Ursache dieser überzeugenden Übereinstimmung ist die Tatsache, daß MPTP selektiv jene dopaminergen Nervenzellen in der Substantia nigra des Gehirns zerstört, welche auch bei der natürlich auftretenden Parkinson'schen Erkrankung durch degenerative Prozesse zerstört werden. Es wird diskutiert, daß auch die Ursache der idiopathischen Parkinson'schen Erkrankung im Organismus entstehendes MPTP oder eine ähnliche chemische Verbindung ist (Snyder, S.H., Nature 311, 514 (1984)). Möglicherweise bedingt durch den spezifischen Metabolismus des MPTP ist die klinische Ausprägung des MPTP-Parkinson'bildes bisher außer beim Menschen nur beim Affen nachweisbar.
Das an Rhesusaffen verwirklichte MPTP-Modell ist daher in hervorragendem Maße geeignet, die Wirkung von Anti-Parkinson-Medikamenten zu prüfen. Insgesamt 7 Rhesusaffen waren an dem Versuch beteiligt. Sie hatten über mehrere Tage verteilt, kumulative Dosen von 2,4-6,25 mg/kg MPTP erhalten, bis stabile und irreversible Parkinson-Symptome aufgetreten waren. Im Vordergrund der Symptomatik stand die Bradykinesie, die alle Tiere zeigten, teilweise sogar bis hin zur Akinesie. Kein Tier war in der Lage, spontan Wasser oder Futter aufzunehmen. Die Reaktivität war stark vermindert, meist verharrten die Tiere in einer typischen Beugehaltung. Tremor wurde gelegentlich gesehen. Die Extremitäten wiesen einen Rigor auf. Bei dem Versuch einer Willkür-Motorik traten häufig klonische Krämpfe auf.
Die nachfolgenden Verbindungen wurden jeweils an 2-3 der so vorbehandelten Tiere getestet. Bei intramuskulärer Gabe wurden nach etwa 5 bis 10 Minuten erste koordinierte Willkürbewegungen möglich, die in den folgenden 10 bis 30 Minuten von einer allmählichen, weitestgehenden Normalisierung der Motorik gefolgt waren. Die Tiere waren in der Lage, Nahrung aufzunehmen. Sie verhielten sich innerhalb ihrer Käfige regelgerecht, dies galt auch hinsichtlich Vigilanz und artspezifischen Verhaltens. Als Restsymptomatik wurde gelegentlich leichter Ruhetremor registriert.
Sobald die Wirkung der Verbindungen nachließ, verfielen die Tiere wieder in die oben beschriebene Parkinson-Symptomatik; eine erneute Applikation der Verbindungen führte wieder zur Besserung bzw. weitgehenden Aufhebung der klinischen Erscheinungen.
Nebenwirkungen traten in den bisher angewandten Dosierungen nicht in Erscheinung.
In der nachfolgenden Tabelle werden sowohl die Mindestdosen, die zur Aufhebung der Parkinsonsymptomatik führen, angegeben, als auch die Wirkungsdauer.

[5] = test system: Mäusen; assay: Toxicity in mice, oral dosing; type: in vivo; conditions: doses up to 500 mg/kg p.o.
From the text: Ferner sind die erfindungsgemäß hergestellten Verbindungen weitgehend untoxisch. So konnten z.

[6] = rat striata, 3H-Spiroperidol 2,5 × 10⁻¹⁰ M, 60 min at room temperature, Ki calculated from IC50, read-out: Ki
[7] = MPTP-treated rhesus monkeys, i.m.

Compound | Ki [1, 6] [nM] | Zahl der Laufimpulse/5 min [2] [Laufimpulse/5 min] | Hemmung des Dopaminabfalls [3] [%] | Dauer (Wirkungsdauer) [4, 7] | minimal effective dose [4] [mg/kg] | Ki [1] [nM] | Todesfälle [5] | minimal effective dose ([4]; MPTP-treated rhesus monkeys, 2-3 animals per compound, i.m.) [mg/kg]
Nc1nc(C2=CCCNC2)cs1 [Substanz E, 2-Amino-4-(1,2,3,6-tetrahydro-pyridin-5-yl)thiazol-dihydrochlorid] | 3 | – | – | – | – | – | – | –
CCCN1CCC=C(c2csc(N)n2)C1 [Substanz A, 2-Amino-4-(1-propyl-1,2,3,6-tetrahydro-pyridin-5-yl)-thiazol] | 36 | 44 ± 4 | 35 | – | – | – | – | –
C=CCN1CC=C(c2csc(N)n2)CC1 [Substanz C, 2-Amino-4-(1-allyl-1,2,3,6-tetrahydro-pyridin-4-yl)-thiazol] | – | 32 ± 7 | 47 | 2-4 Std. | 0.35 | 22 | keine Todesfälle | –
C=CCN1CCC=C(c2csc(N)n2)C1 [Substanz B, 2-Amino-4-(1-allyl-1,2,3,6-tetrahydro-pyridin-5-yl)-thiazol] | 8 | 52 ± 9 | – | 2-5 Std. | – | – | – | 0.05
CCCN1CCC(c2csc(N)n2)CC1 [Substanz F, 2-Amino-4-(1-propyl-piperidin-4-yl)thiazol] | – | 65 ± 17 | 59 | 2-3 Std. | 0.2 | 38 | – | –
CCCN1CC=C(c2csc(N)n2)CC1 [Substanz D, 2-Amino-4-(1-propyl-1,2,3,6-tetrahydro-pyridin-4-yl)-thiazol] | – | 80 ± 10 | 80 | 2-3 Std. | 0.03 | 6 | – | –

Source: patent publication EP0280873A1, “Piperidines, medicines containing them and process for their preparation” (Dr. Karl Thomae GmbH, priority 1987, dated 1988)
